Assay results taken from US9109041B2, “Analog compounds of analgesic peptides derived from the venom of crotalus durissus terrificus snakes, their uses, compositions, methods of preparation and purification” (priority 2004, dated 2015).

How the values were obtained:
[1] = test system: prostaglandin E2-induced hyperalgesia; test: rat paw pressure test, prostaglandin E2-induced hyperalgesia; settings: for 50% effective dose / 60% effective dose / 90% effective dose: reversal of PGE2-induced hyperalgesia, CurveExpert 1.3
[2] = test system: spontaneous pain induced by constriction of the sciatic nerve; test: spontaneous pain induced by constriction of the sciatic nerve (licking and lifting time); format: in vivo, rat; settings: 5 μg/kg p.o.
Procedure: For the induction of neuropathic pain, surgery was performed in the sciatic nerve, in accordance with the method described by Bennett, G. J and Xie, Y. K. (Pain, 33:87-107, 1988). The animals were anesthetized with halothane. The sciatic nerve was exposed in the middle region of the thigh, moving away the femoral biceps muscle. Close to the trifurcation of the sciatic nerve, 7 mm of distance from the trifurcation, 4 loose ligations were performed (chromed catgut 4-0) around it, distant from each other in approximately 1 mm. The bindings were performed along the nerve, up to 4-5 mm from the initial point. The incision was sutured in layers, using silk suture thread number 4-0.
For the observation of the signs that characterize spontaneous pain, the animals were placed one by one, in a transparent plastic box. After the acclimatizing period of 30 minutes, the rats were observed during 10 minutes, determining the duration of the licking (in seconds) and lifting time. The licking and lifting activities, performed as part of the normal grooming behavior of animals, were not considered.

[3] = day 14 after surgery, before peptide, 10 min observation

Question: How did the “pain threshold, IM (g) ± S.E.M.” value ([1]; 1 μg/kg p.o. + ICI174,864 10 μg/paw i.pl., before PGE2) turn out when “Xaa-Phe-Ser-Pro-Glu-Asn-Cys-Gln-Gly-Glu-Ser-Gln-Pro-Cys [SEQ ID NO: 2]” was run?
Answer: 78 ± 1.22 g

Question: And the “pain threshold, FM (g) ± S.E.M” value ([1]; 1 μg/kg p.o. + nor-Binalthorphimine 50 μg/leg i.pl. with PGE2, 3 h after PGE2)?
Answer: 56 ± 1.87 g

Question: What about the “pain threshold, IM (g) ± S.E.M.” value ([1]; 1 μg/kg p.o. + nor-Binalthorphimine 50 μg/leg i.pl., before PGE2) of the same substance?
Answer: 77 ± 1.22 g

Question: And the “pain threshold, IM (g) ± S.E.M.” value ([1]; 1 μg/kg p.o., 0 h, before administration (Table 6))?
Answer: 79 ± 1.00 g

Question: And the “pain threshold, FM (g) ± S.E.M” value ([1]; 1.0 μg/kg p.o., 3 h after PGE2 100 ng/paw i.pl. (Table 2))?
Answer: 108 ± 2.00 g

Question: What about the “pain threshold, FM (g) ± S.E.M” value ([1]; 1 μg/kg p.o., 3 h after PGE2 100 ng/paw i.pl. (Table 7)) of the same substance?
Answer: 111 ± 3.32 g

Question: And the “pain threshold, FM (g) ± S.E.M” value ([1]; 1 μg/kg p.o., 24 h after administration, PGE2 100 ng/paw 3 h before measurement)?
Answer: 126 ± 3.32 g

Question: And the “pain threshold, FM (g) ± S.E.M” value ([1]; 1 μg/kg p.o., 48 h after administration, PGE2 100 ng/paw 3 h before measurement)?
Answer: 121 ± 1.87 g

Question: What about the “pain threshold, FM (g) ± S.E.M” value ([1]; 1 μg/kg p.o., 72 h after administration, PGE2 100 ng/paw 3 h before measurement) of the same substance?
Answer: 111 ± 4.3 g

Question: And the “pain threshold, FM (g) ± S.E.M” value ([1]; 1 μg/kg p.o., 96 h after administration, PGE2 100 ng/paw 3 h before measurement)?
Answer: 117 ± 2.5 g

Question: What about the “pain threshold, FM (g) ± S.E.M” value ([1]; 1 μg/kg p.o., 120 h after administration, PGE2 100 ng/paw 3 h before measurement) of the same substance?
Answer: 130 ± 2.24 g

Question: And the “pain threshold, FM (g) ± S.E.M” value ([1]; 1 μg/kg p.o., 144 h after administration, PGE2 100 ng/paw 3 h before measurement)?
Answer: 59 ± 2.39 g

Question: And the “pain threshold, IM (g) ± S.E.M.” value ([1]; 1.0 μg/kg p.o., before PGE2 (Table 2))?
Answer: 77 ± 2.00 g

Question: And the “pain threshold, IM (g) ± S.E.M.” value ([1]; 1 μg/kg p.o., before PGE2 (Table 7))?
Answer: 77 ± 1.22 g

Question: And the “pain threshold, FM (g) ± S.E.M” value ([1]; 5 μg/kg p.o. + ICI174,864 i.pl. with PGE2, 3 h after PGE2)?
Answer: 145 ± 2.89 g

Question: And the “pain threshold, IM (g) ± S.E.M.” value ([1]; 5 μg/kg p.o. + ICI174,864 i.pl., before PGE2)?
Answer: 77 ± 1.05 g

Question: And the “pain threshold, FM (g) ± S.E.M” value ([1]; 5 μg/kg p.o. + nor-BNI i.pl. with PGE2, 3 h after PGE2)?
Answer: 58 ± 2.47 g

Question: What about the “pain threshold, IM (g) ± S.E.M.” value ([1]; 5 μg/kg p.o. + nor-BNI i.pl., before PGE2) of the same substance?
Answer: 77 ± 1.05 g

Question: What about the “pain threshold, FM (g) ± S.E.M” value ([1]; 5.0 μg/kg p.o., 3 h after PGE2 100 ng/paw i.pl. (Table 2)) of the same substance?
Answer: 130 ± 1.58 g

Question: And the “pain threshold, FM (g) ± S.E.M” value ([1]; 5 μg/kg p.o., 3 h after PGE2 100 ng/paw i.pl. (Table 8))?
Answer: 147 ± 2.55 g

Question: And the “pain threshold, IM (g) ± S.E.M.” value ([1]; 5.0 μg/kg p.o., before PGE2 (Table 2))?
Answer: 78 ± 2.00 g

Question: And the “pain threshold, IM (g) ± S.E.M.” value ([1]; 5 μg/kg p.o., before PGE2 (Table 8))?
Answer: 77 ± 1.22 g

Question: And the “pain threshold, FM (g) ± S.E.M” value ([1]; 25.0 μg/kg p.o., 3 h after PGE2 100 ng/paw i.pl.)?
Answer: 133 ± 3.39 g

Question: What about the “pain threshold, IM (g) ± S.E.M.” value ([1]; 25.0 μg/kg p.o., before PGE2) of the same substance?
Answer: 79 ± 1.87 g

Question: And the 50% effective dose ([1]; intraplantar route)?
Answer: 0.000002327 µg/kg

Question: And the 60% effective dose ([1]; intraplantar route)?
Answer: 0.000004904 µg/kg

Question: And the 90% effective dose ([1]; intraplantar route)?
Answer: 0.002876 µg/kg

Question: What about the 50% effective dose ([1]; intravenous route) of the same substance?
Answer: 0.0000458 µg/kg

Question: What about the 60% effective dose ([1]; intravenous route) of the same substance?
Answer: 0.0002144 µg/kg

Question: And the 90% effective dose ([1]; intravenous route)?
Answer: 0.002701 µg/kg

Question: And the “duration of the antinociceptive effect” value ([1]; one single administration, 1 μg/kg p.o.)?
Answer: up to 120 hours

Question: And the 50% effective dose ([1]; oral route)?
Answer: 0.004146 µg/kg

Question: And the 60% effective dose ([1]; oral route)?
Answer: 0.006348 µg/kg

Question: What about the 90% effective dose ([1]; oral route) of the same substance?
Answer: 0.02106 µg/kg

Question: And the “opioid receptors involved in the antinociceptive effect” value ([1]; peptide 1 μg/kg p.o., delta, kappa, mu antagonists i.pl.)?
Answer: kappa opioid receptors are involved

Question: And the “opioid receptors involved in the antinociceptive activity” value ([1]; peptide 5 μg/kg p.o., kappa and delta antagonists i.pl.)?
Answer: kappa opioid receptors are involved

Question: And the analgesic activity ([1]; synthetic peptides compared with natural ENPAK-k, similar conditions)?
Answer: same analgesic activity as the natural ENPAK-k

Question: And the “lifting time, FM 1 h” value ([2]; 1 h after peptide)?
Answer: 2 ± 0.21 s

Question: What about the “paw licking time, FM 1 h” value ([2]; 1 h after peptide) of the same substance?
Answer: 2 ± 0.21 s

Question: And the “lifting time, FM 3 h” value ([2]; 3 h after peptide)?
Answer: 2 ± 0.26 s

Question: What about the “paw licking time, FM 3 h” value ([2]; 3 h after peptide) of the same substance?
Answer: 2 ± 0.21 s

Question: And the “lifting time, FM 24 h” value ([2]; 24 h after peptide)?
Answer: 2 ± 0.22 s

Question: What about the “paw licking time, FM 24 h” value ([2]; 24 h after peptide) of the same substance?
Answer: 2 ± 0.39 s

Question: And the “lifting time, FM 48 h” value ([2]; 48 h after peptide)?
Answer: 1.0 ± 0.16 s

Question: What about the “paw licking time, FM 48 h” value ([2]; 48 h after peptide) of the same substance?
Answer: 1.5 ± 0.22 s

Question: What about the “lifting time, FM 72 h” value ([2]; 72 h after peptide) of the same substance?
Answer: 2 ± 0.26 s

Question: What about the “paw licking time, FM 72 h” value ([2]; 72 h after peptide) of the same substance?
Answer: 1.5 ± 0.22 s

Question: What about the “lifting time, FM 96 h” value ([2]; 96 h after peptide) of the same substance?
Answer: 1.5 ± 0.16 s

Question: What about the “paw licking time, FM 96 h” value ([2]; 96 h after peptide) of the same substance?
Answer: 21 ± 0.26 s

Question: And the “lifting time, FM 120” value ([2]; 120 h after peptide)?
Answer: 95 ± 0.50 s

Question: What about the “paw licking time, FM 120” value ([2]; 120 h after peptide) of the same substance?
Answer: 21 ± 0.38 s

Question: What about the “lifting time, IM” value [2, 3] of the same substance?
Answer: 97 ± 0.43 s

Question: What about the “paw licking time, IM” value [2, 3] of the same substance?
Answer: 22 ± 0.64 s
